Source: patent publication US9107936B2, “Antagonists of GRASP55 for use as a medicament” (Institut National de la Sante et de la Recherche Medicale …, priority 2012, dated 2015)

Columns and labels:
Type in all cases: binding, murine
[1] = biological target: T1, GST-GraspFL (GST-Grasp55 full length) (Mus musculus, UniProt Q99JX3); assay: HTRF competition with GST-Grasp55 full length; conditions: biotinylated JAM-C peptide
T1 construct: GST-GraspFL (GST-Grasp55 full length); made in house; host or cells: bacteria Rosetta
Protocol: (§1) To refine and extend the results obtained by yeast two hybrid, an Homogenous Time Resolved Fluorescence (HTRF) assay have been set-up to measure interactions of various peptides with recombinant GST proteins corresponding to different regions of Grasp55.
Briefly, the technique consisted in incubating 18 h at 4° C. the biotinylated-Cterminal peptides (SEQ ID NO: 26 to 34) at the concentration of 1.9*10^−7M with the GST-fusion protein, the terbium-coupled anti-GST antibody (8*10^−10M each) and the d2-coupled streptavidin (4*10^−8M) (both from Cisbio), in 0.1 mL of Hepes 0.05M, NaCl 0.15M BSA 0.1% pH 7.2. In some experiments, competing peptide or chemicals were added to the incubation mix at the indicated concentration. After incubation, microtiter plates (Costar #3693) were red using PolarScan Omega (BMG Labtech) equipped for HTRF measurements. Upon excitation at 320 nm, a 620 nm fluorescence emission is produced by the donor terbium that in turn excites a 665 nm light emission by a Streptavidin-d2 (acceptor) bound to the Biotinylated interacting Peptide if the latter is interacting with the donor. The […] R ratio is obtained and a Delta F is computed as: [(Rsample−RNSB)/RNSB]*100 where RNSB is the Non Specific Background signal determined in incubates where the GST-fusion protein was omitted. […]

[2] = biological target: T2, GST-PDZI′ (Grasp55 residues 1 to 107) (Mus musculus, UniProt Q99JX3); assay: HTRF measurement of interaction of biotinylated C-terminal peptides with GST-PDZI′; conditions: biotinylated JAM-C peptide, GST-PDZI′
T2 construct: GST fusion proteins encompassing residues 1 to 107; made in house; host or cells: bacteria Rosetta
Protocol: as §1
(§2) Briefly, the technique consisted in incubating 18 h at 4° C. the biotinylated-Cterminal peptides (SEQ ID NO: 26 to 34) at the concentration of 1.9*10^−7M with the GST-fusion protein, the terbium-coupled anti-GST antibody (8*10^−10M each) and the d2-coupled streptavidin (4*10^−8M) (both from Cisbio), in 0.1 mL of Hepes 0.05M, NaCl 0.15M BSA 0.1% pH 7.2. In some experiments, competing peptide or chemicals were added to the incubation mix at the indicated concentration. After incubation, microtiter plates (Costar #3693) were red using PolarScan Omega (BMG Labtech) equipped for HTRF measurements. Upon excitation at 320 nm, a 620 nm fluorescence emission is produced by the donor terbium that in turn excites a 665 nm light emission by a Streptavidin-d2 (acceptor) bound to the Biotinylated interacting Peptide if the latter is interacting with the donor. The […] R ratio is obtained and a Delta F is computed as: [(Rsample−RNSB)/RNSB]*100 where RNSB is the Non Specific Background signal determined in incubates where the GST-fusion protein was omitted.
(§3) Having shown that HTRF measurement of interaction is a reliable technology to identify inhibitors of interaction. A screen of a chemical compound library provided by MRCt has been initiated. The screening consisted in the same HTRF technique used in Example 7 except that compounds from the library were added in the incubation mix at the final concentration of 6.6×10^−5M. […] Since such a result could be either due to a specific inhibition of the JAM-C peptide interaction to the recombinant Grasp55 PDZ domains or to a non-specific inhibition of the FRET signal between donor and acceptor in HTRF technology, the twenty selected compounds have been further tested. Indeed, compounds could potentially interfere with the binding of the anti-GST antibody terbium-labeled to the GST of the fusion protein, the binding of Streptavidin-d2 to the biotinylated peptide or promote strong interference at 320, […] or 665 nm. Thus, the putative hits obtained were screened for non-specific inhibition. To this end, the GST-PDZI′+II′ recombinant protein was biotinylated using Sulfo-NHS Biotin according to manufacturer instructions (Pierce). This allows designing an HTRF assay in which the d2-coupled streptavidin (acceptor) and the terbium-coupled anti-GST antibody are directly bound to recombinant GST-PDZI′+II′ protein and produce DeltaF signal independently of the biotinylated peptide. The twenty selected compounds were thus tested in this assay to eliminate those giving false inhibition of the HTRF signals while inhibitors of Biotinylated peptide interaction with GST-PDZI′+II′ should not interfere in this assay.

[3] = biological target: T3, GST-PDZI′+II′ (Grasp55 residues 1 to 208) (Mus musculus, UniProt Q99JX3); assay: HTRF measurement of interaction of biotinylated C-terminal peptides with GST-PDZI′+II′; conditions: biotinylated JAM-C peptide, GST-PDZI′+II′
T3 construct: and 1 to 208 corresponding respectively to the PDZI′, PDZII′ and PDZI′+II′ constructs; made in house; host or cells: bacteria Rosetta
Protocol: as §1, §2, §3

- EC50 of competition of the HTRF signal [1]: low micromolar range
- increase in EC50 with GST-PDZI′ versus GST-PDZI′+II′ and GST-GraspFL [2]: twenty fold increase in EC50
- EC50 of competition of the HTRF signal [3]: low micromolar range
Sequence: NYIRTSEEGDFRHKSSFVI [unlabelled peptide]
